Measured values published in patent publication US10722516B2, “Use of landiolol hydrochloride in the long-term treatment of tachyarrhythmias” (AOP Orphan Pharmaceuticals AG, priority 2013, dated 2020).
Where a name gives a salt, the structure may show the parent alone.

What was measured:
[1] = after discontinuing the drug; cited from earlier work
healthy volunteers [2] = assay: 24 h long-term infusion study: local tolerability and safety; format: in vivo, human; details: 24 h infusion
Protocol: (§1) A single centre prospective, randomized, double blind, crossover, pharmacokinetic, safety and tolerability study to compare long-term infusion administration of AOP LDLL600 against esmolol in healthy volunteers was performed.
(§2) Landiolol hydrochloride lyophilized (LDLL600) comprises 600 mg landiolol hydrochloride, 600 mg mannitol, pH 6.5. The primary packing of LDLL600 is 50 ml vial, the reconstitution volume is 50 ml and the final product concentration is 12 mg/mL landiolol HCl.
(§3) 12 subjects were administered AOP LDLL600 or Esmolol (Brevibloc, 2500 mg/250 ml) in 1:1 ratio in double-blind, randomized, cross-over setting. PK, systemic cardiovascular and local tolerability and safety of the 24 h-long term infusions of three dose levels of both IMPs during each treatment period were assessed.
(§4) Landiolol was infused over 24 h in a dose of 10 μg/KG/min (2 hrs), followed by 20 μg/KG/min (2 hrs), followed by 40 μg/KG/min for 20 hrs.
(§5) Dosing algorithm was body weight divided by 20, 10 and 5 in ml/h giving 10, 20 and 40 μg/KG/min at a concentration of 12 mg/ml. No severe adverse drug reactions, mild local reactions, 1 severe local reaction (Esmolol High Dose).
(§6) Landiolol was infused over 24 h in a dose of 10, 20 and 40 μg/KG/min, i.e. 10 μg/KG/min landiolol were administered for 2 hrs, followed by 2 hrs administration of 20 μg/KG/min and further followed by 20 hrs administration of 40 μg/KG/min.

[3] = biological target: adrenergic β1 adrenoreceptor (Homo sapiens, UniProt P08588); details: bolus followed by a continuous infusion; cited from earlier work
Chain of adrenergic β1 adrenoreceptor (P08588 whole entry, the tested form may be a part): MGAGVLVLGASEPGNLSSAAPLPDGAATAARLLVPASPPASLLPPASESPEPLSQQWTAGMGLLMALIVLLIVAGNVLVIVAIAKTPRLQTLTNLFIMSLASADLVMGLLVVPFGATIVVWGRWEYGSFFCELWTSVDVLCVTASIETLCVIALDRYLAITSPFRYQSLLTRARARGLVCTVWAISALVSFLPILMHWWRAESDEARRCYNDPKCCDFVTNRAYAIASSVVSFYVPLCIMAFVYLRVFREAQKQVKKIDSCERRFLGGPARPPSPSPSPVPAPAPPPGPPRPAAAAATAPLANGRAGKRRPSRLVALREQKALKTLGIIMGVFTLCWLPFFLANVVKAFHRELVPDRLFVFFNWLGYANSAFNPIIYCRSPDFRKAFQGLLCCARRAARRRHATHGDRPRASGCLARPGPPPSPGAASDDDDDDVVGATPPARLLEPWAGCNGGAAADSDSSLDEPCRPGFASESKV

healthy volunteers [4] = assay: 24 h long-term infusion study, AOP LDLL600 against esmolol: heart rate; format: in vivo, human
Protocol: as §1, §2, §3, §4, §5, §6
Post-infusion follow up measurements were performed immediately after 20 hrs administration study, i.e. 2, 4 min etc. after stop of landiolol administration.

[5] = FU Predose (end of 20 h HD, infusion stop)
[6] = FU post-infusion, 20 h 2 min (2 min after infusion stop)
[7] = FU post-infusion, 20 h 4 min (4 min after infusion stop)
[8] = FU post-infusion, 20 h 6 min (6 min after infusion stop)
[9] = FU post-infusion, 20 h 8 min (8 min after infusion stop)
[10] = FU post-infusion, 20 h 12 min (12 min after infusion stop)
[11] = FU post-infusion, 20 h 16 min (16 min after infusion stop)
[12] = FU post-infusion, 20 h 20 min (20 min after infusion stop)
[13] = FU post-infusion, 20 h 30 min (30 min after infusion stop)
[14] = FU post-infusion, 21 h (1 h after infusion stop)
[15] = FU post-infusion, 22 h (2 h after infusion stop)
[16] = FU post-infusion, 24 h (4 h after infusion stop)
[17] = FU post-infusion, 26 h (6 h after infusion stop)
[18] = HD infusion (landiolol 40, esmolol 200 μg/kg/min, after LD and MD), 2 min
[19] = HD infusion (landiolol 40, esmolol 200 μg/kg/min, after LD and MD), 3 min
[20] = HD infusion (landiolol 40, esmolol 200 μg/kg/min, after LD and MD), 4 min
[21] = HD infusion (landiolol 40, esmolol 200 μg/kg/min, after LD and MD), 6 min
[22] = HD infusion (landiolol 40, esmolol 200 μg/kg/min, after LD and MD), 8 min
[23] = HD infusion (landiolol 40, esmolol 200 μg/kg/min, after LD and MD), 12 min
[24] = HD infusion (landiolol 40, esmolol 200 μg/kg/min, after LD and MD), 16 min
[25] = HD infusion (landiolol 40, esmolol 200 μg/kg/min, after LD and MD), 20 min
[26] = HD infusion (landiolol 40, esmolol 200 μg/kg/min, after LD and MD), 30 min
[27] = HD infusion (landiolol 40, esmolol 200 μg/kg/min, after LD and MD), 60 min
[28] = HD infusion (landiolol 40, esmolol 200 μg/kg/min, after LD and MD), 90 min
[29] = HD infusion (landiolol 40, esmolol 200 μg/kg/min, after LD and MD), 2 h
[30] = HD infusion (landiolol 40, esmolol 200 μg/kg/min, after LD and MD), 4 h
[31] = HD infusion (landiolol 40, esmolol 200 μg/kg/min, after LD and MD), 8 h
[32] = HD infusion (landiolol 40, esmolol 200 μg/kg/min, after LD and MD), 12 h
[33] = HD infusion (landiolol 40, esmolol 200 μg/kg/min, after LD and MD), 16 h
[34] = HD infusion (landiolol 40, esmolol 200 μg/kg/min, after LD and MD), 20 h (end)

In the case of COC(=O)CCc1ccc(OCC(O)CNC(C)C)cc1 (stereo not drawn) [Esmolol, Esmolol hydrochloride], the “time to resolution of hypotension symptoms” value [1] is given as no more than 30 min, the “local reactions (percent of subjects)” value (healthy volunteers [2]; three dose levels) is given as 50.0% and the “local reactions (subjects/total)” value (healthy volunteers [2]; three dose levels) is given as 7/14. For the same compound, the “severe local reaction (number)” value (healthy volunteers [2]; Esmolol High Dose (200 μg/kg/min)) was 1, the onset of activity [3] was no more than 2 min and the “time to 90% of steady-state beta-blockade” value [3] was no more than 5 min. For the same compound, the “change of heart rate from predose, Mean (SD)” value (“change of heart rate … (SD)” for short) (healthy volunteers [4]; [5]) was 1.5 (9.05) beats per minute, the “heart rate, Mean (SD)” value (healthy volunteers [4]; [5]) was 69.1 (6.40) beats per minute and the “change of heart rate … (SD)” value (healthy volunteers [4]; [6]) was 1.4 (7.57) beats per minute. The “heart rate, Mean (SD)” value (healthy volunteers [4]; [6]) was 69.0 (4.88) beats per minute, the “change of heart rate … (SD)” value (healthy volunteers [4]; [7]) was 3.6 (8.77) beats per minute and the “heart rate, Mean (SD)” value (healthy volunteers [4]; [7]) was 71.3 (7.04) beats per minute. The “change of heart rate … (SD)” value (healthy volunteers [4]; [8]) was 5.4 (8.11) beats per minute, the “heart rate, Mean (SD)” value (healthy volunteers [4]; [8]) was 73.1 (7.89) beats per minute and the “change of heart rate … (SD)” value (healthy volunteers [4]; [9]) was 5.4 (8.10) beats per minute. For the same compound, the “heart rate, Mean (SD)” value (healthy volunteers [4]; [9]) was 73.1 (7.57) beats per minute, the “change of heart rate … (SD)” value (healthy volunteers [4]; [10]) was 7.1 (8.43) beats per minute and the “heart rate, Mean (SD)” value (healthy volunteers [4]; [10]) was 74.7 (8.62) beats per minute. For the same compound, the “change of heart rate … (SD)” value (healthy volunteers [4]; [11]) was 6.4 (7.44) beats per minute, the “heart rate, Mean (SD)” value (healthy volunteers [4]; [11]) was 74.0 (7.99) beats per minute and the “change of heart rate … (SD)” value (healthy volunteers [4]; [12]) was 6.8 (7.17) beats per minute. For the same compound, the “heart rate, Mean (SD)” value (healthy volunteers [4]; [12]) was 74.4 (7.04) beats per minute, the “change of heart rate … (SD)” value (healthy volunteers [4]; [13]) was 9.1 (8.04) beats per minute and the “heart rate, Mean (SD)” value (healthy volunteers [4]; [13]) was 76.8 (8.51) beats per minute. The “change of heart rate … (SD)” value (healthy volunteers [4]; [14]) was 5.5 (8.15) beats per minute, the “heart rate, Mean (SD)” value (healthy volunteers [4]; [14]) was 73.1 (7.50) beats per minute and the “change of heart rate … (SD)” value (healthy volunteers [4]; [15]) was 2.6 (8.02) beats per minute. For the same compound, the “heart rate, Mean (SD)” value (healthy volunteers [4]; [15]) was 70.2 (7.06) beats per minute, the “change of heart rate … (SD)” value (healthy volunteers [4]; [16]) was 4.5 (9.51) beats per minute and the “heart rate, Mean (SD)” value (healthy volunteers [4]; [16]) was 72.1 (7.37) beats per minute. For the same compound, the “change of heart rate … (SD)” value (healthy volunteers [4]; [17]) was 5.1 (10.85) beats per minute, the “heart rate, Mean (SD)” value (healthy volunteers [4]; [17]) was 72.8 (9.74) beats per minute and the “change of heart rate … (SD)” value (healthy volunteers [4]; HD Predose (end of 2 h MD)) was −3.9 (7.75) beats per minute. For the same compound, the “heart rate, Mean (SD)” value (healthy volunteers [4]; HD Predose (end of 2 h MD)) was 63.7 (4.86) beats per minute, the “change of heart rate … (SD)” value (healthy volunteers [4]; [18]) was −2.5 (8.96) beats per minute and the “heart rate, Mean (SD)” value (healthy volunteers [4]; [18]) was 65.1 (7.10) beats per minute. The “change of heart rate … (SD)” value (healthy volunteers [4]; [19]) was −3.2 (8.99) beats per minute, the “heart rate, Mean (SD)” value (healthy volunteers [4]; [19]) was 64.4 (4.38) beats per minute and the “change of heart rate … (SD)” value (healthy volunteers [4]; [20]) was −3.1 (8.16) beats per minute. For the same compound, the “heart rate, Mean (SD)” value (healthy volunteers [4]; [20]) was 64.5 (4.74) beats per minute, the “change of heart rate … (SD)” value (healthy volunteers [4]; [21]) was −2.8 (8.97) beats per minute and the “heart rate, Mean (SD)” value (healthy volunteers [4]; [21]) was 64.9 (4.29) beats per minute. For the same compound, the “change of heart rate … (SD)” value (healthy volunteers [4]; [22]) was −3.7 (10.45) beats per minute, the “heart rate, Mean (SD)” value (healthy volunteers [4]; [22]) was 63.9 (7.14) beats per minute and the “change of heart rate … (SD)” value (healthy volunteers [4]; [23]) was −2.9 (9.19) beats per minute. The “heart rate, Mean (SD)” value (healthy volunteers [4]; [23]) was 64.8 (4.39) beats per minute, the “change of heart rate … (SD)” value (healthy volunteers [4]; [24]) was −3.3 (8.32) beats per minute and the “heart rate, Mean (SD)” value (healthy volunteers [4]; [24]) was 64.4 (7.16) beats per minute. The “change of heart rate … (SD)” value (healthy volunteers [4]; [25]) was −0.4 (11.69) beats per minute, the “heart rate, Mean (SD)” value (healthy volunteers [4]; [25]) was 67.3 (7.26) beats per minute and the “change of heart rate … (SD)” value (healthy volunteers [4]; [26]) was −2.3 (9.26) beats per minute. The “heart rate, Mean (SD)” value (healthy volunteers [4]; [26]) was 65.4 (5.69) beats per minute, the “change of heart rate … (SD)” value (healthy volunteers [4]; [27]) was 4.9 (9.60) beats per minute and the “heart rate, Mean (SD)” value (healthy volunteers [4]; [27]) was 72.6 (6.64) beats per minute. For the same compound, the “change of heart rate … (SD)” value (healthy volunteers [4]; [28]) was 5.9 (8.95) beats per minute, the “heart rate, Mean (SD)” value (healthy volunteers [4]; [28]) was 73.6 (4.57) beats per minute and the “change of heart rate … (SD)” value (healthy volunteers [4]; [29]) was 6.2 (9.32) beats per minute. The “heart rate, Mean (SD)” value (healthy volunteers [4]; [29]) was 73.9 (4.55) beats per minute, the “change of heart rate … (SD)” value (healthy volunteers [4]; [30]) was 2.8 (9.60) beats per minute and the “heart rate, Mean (SD)” value (healthy volunteers [4]; [30]) was 70.4 (5.03) beats per minute. The “change of heart rate … (SD)” value (healthy volunteers [4]; [31]) was 0.3 (10.34) beats per minute, the “heart rate, Mean (SD)” value (healthy volunteers [4]; [31]) was 67.9 (5.95) beats per minute and the “change of heart rate … (SD)” value (healthy volunteers [4]; [32]) was 0.7 (10.94) beats per minute. For the same compound, the “heart rate, Mean (SD)” value (healthy volunteers [4]; [32]) was 68.4 (8.30) beats per minute, the “change of heart rate … (SD)” value (healthy volunteers [4]; [33]) was 0.3 (9.27) beats per minute and the “heart rate, Mean (SD)” value (healthy volunteers [4]; [33]) was 67.9 (7.49) beats per minute. The “change of heart rate … (SD)” value (healthy volunteers [4]; [34]) was 1.5 (9.05) beats per minute, the “heart rate, Mean (SD)” value (healthy volunteers [4]; [34]) was 69.1 (6.40) beats per minute and the “change of heart rate … (SD)” value (healthy volunteers [4]; LD infusion (landiolol 10, esmolol 50 μg/kg/min), 2 min) was −0.7 (6.22) beats per minute.
